In general, IC50 refers to the concentration needed to halve the response being measured.

Structures are written as SMILES.

What all share (type): cell-based
The subject of series [1] is triple negative breast cancer (TBNC) cell line MDA-MB-231. The series can be described thus: XTT cell survival assay and CalcuSyn combination index, MDA-MB-231. The settings on record: Homo sapiens, monotherapy, XTT assay, dose at which 50% of the cells are viable. As for the experimental part:
(§1) Cell cultures were performed with the triple negative breast cancer (TBNC) cell line MDA-MB-231, the histiocytic lymphoma cell line U937 and the non-tumor mammary cell line MCF-10A. Cells were grown according to the supplier's instructions. Cell lines were maintained at 37°C in a humidified atmosphere at 5% CO2, except the MDA-MB-231 cell line which was maintained at 0% CO2.
(§2) In a first step, the characterization of the effect of drugs monotherapy on cell survival (tumour and non-tumour cells) was performed. MDA-MB-231 (5.10^3 cells/well), MCF-10A (5.10^3 cells/well) and U937 (2.10^4 cells/well) were seeded in 96 well-plates and incubated 24 hours at +37°C before addition of the drug at increasing concentrations for 4 to 7 days. Following drug exposure, cell survival was measured using the XTT assay (Sigma Aldrich). Briefly, the XTT solution was added directly to each well containing cell culture and the cells incubated for 4 to 24 hours at 37°C before reading the absorbance at 490 nm and 690 nm using a microplate reader (BMG Fluostar, Galaxy). Cell survival is calculated as the ratio of living treated cells to living mock-treated cells. The IC50 (which represents the dose at which 50% of the cells are viable) is calculated by a non-linear regression model using GraphPad Prism software (version 5.04) by plotting the percentage viability against the Log of the drug concentration on each cell line.
In a second step, analysis and quantification of the drug combination efficacy were performed. Cells were seeded in 96-well plates at the appropriate densities and treated with belinostat (PXD-101 - Spectrum) and/or ATR (ATRi - AZD6738, Selleckchem; VE-821, Selleckchem) simultaneously during 4 to 7days. Belinostat + ATRi combinations was performed at a constant ratio (from IC50/8 to IC50*8) as previously described (Chou TC, Talalay P. Adv Enzyme Regul. 1984;22:27-55 (Quantitative analysis of dose-effect relationships: the combined effects of multiple drugs or enzyme inhibitors). Cell survival was measured using the XTT assay (see above).
Combination efficacy is evaluated by "the combination index (CI)" which is determined using the CalcuSyn software tool based on the Chou Talalay method. A CI could be interpreted as follows: CI<1, =1, and >1 indicate synergism; additive effect and antagonism, respectively (CalculSyn manual, Biosoft, 2006). Note that we define synergism as a more than expected additive effect, and antagonism as a less than expected additive effect. […]
(§3) In a second step, analysis and quantification of the drug combination efficacy were performed. […] Cell survival is measured using the XTT assay (see above).
(§4) Combination efficacy is evaluated by "the combination index (CI)" which was determined using the CalcuSyn software tool based on the Chou Talalay method. […]

The test system of series [2] is histiocytic lymphoma cell line U937. Kind of series: XTT cell survival assay and CalcuSyn combination index, U937. The note with it: Homo sapiens, U-937, monotherapy, XTT assay, dose at which 50% of the cells are viable. As for the experimental part: as §1
as §2, with “The IC50 (which represents the dose at which 50% of the cells are viable) is calculated by a non-linear regression model using GraphPad Prism software (version 5.04) by plotting the percentage viability against the Log of the drug concentration on each cell line.” left out
In a second step, analysis and quantification of the drug combination efficacy were performed. […] Belinostat + ATRi combinations was performed at a constant ratio (from IC50/8 to IC50*8) as previously described (Chou TC, Talalay P. Adv Enzyme Regul. 1984;22:27-55 (Quantitative analysis of dose-effect relationships: the combined effects of multiple drugs or enzyme inhibitors). Cell survival was measured using the XTT assay (see above).
Combination efficacy is evaluated by "the combination index (CI)" which is determined using the CalcuSyn software tool based on the Chou Talalay method. […]
as §3, §4

Series [3] concerns non-tumor mammary cell line MCF-10A. The series can be described thus: XTT cell survival assay, non-tumor cells MCF-10A. The settings on record: same drug doses as MDA-MB-231, 7 days; for sensitivity of non-tumor cells: XTT survival.
Protocol: Following drug exposure, cell survival was measured using the XTT assay (Sigma Aldrich). […] Following drug exposure, cell survival was measured using the XTT assay (Sigma Aldrich).

As to `C[C@@H]1COCCN1c1cc(C2([S@](C)(=N)=O)CC2)nc(-c2cc[nH]c3nccc2-3)n1` [AZD6738, 4-[4-[1-[[S(R)]-S-methylsulfonimidoyl]cyclopropyl]-6-[(3R)-3-methyl-4-morpholinyl]-2-pyrimidinyl]-1H-pyrrolo[2,3-b]pyridine], the IC50 is 2500 nM in series [1] and 500 nM in series [2]. Also, the “sensitivity of non-tumor cells on adding belinostat” value in series [3] (inhibitor plus belinostat) is “didn't increase”. In addition, the “sensitivity of non-tumor cells” value in series [3] is “showed a sensitivity”.
In the case of `O=C(/C=C/c1cccc(S(=O)(=O)Nc2ccccc2)c1)NO` [Belinostat, (2E)-N-hydroxy-3-[3-(phenylsulfamoyl)phenyl]prop-2-enamide], the IC50 in series [1] and in series [2] was 250 nM each time. The “sensitivity of non-tumor cells” value in series [3] is given as “insensitive”.
Take `Cc1cnc(NC(=O)Nc2cc(Br)c(C)cc2OC[C@@H]2CNCCO2)cn1` [LY2603618, 1-[5-bromo-4-methyl-2-[[(2S)-morpholin-2-yl]methoxy]phenyl]-3-(5-methylpyrazin-2-yl)urea]: the IC50 in series [1] was 3200 nM; in series [2] it was 1100 nM. In addition, the “sensitivity of non-tumor cells” value in series [3] is reported as “showed a sensitivity”.
Take `CS(=O)(=O)c1ccc(-c2cnc(N)c(C(=O)Nc3ccccc3)n2)cc1` [VE-821, 3-amino-6-(4-methylsulfonylphenyl)-N-phenylpyrazine-2-carboxamide]: the IC50 in series [1] was 18000 nM.

Values taken from patent publication EP3461480A1, “COMBINATION OF A DNA DAMAGE RESPONSE CELL CYCLE CHECKPOINT INHIBITORS AND BELINOSTAT FOR TREATING CANCER” (ONXEO, priority 2017, dated 2019).
